Here are results for one compound from US8889591B2, “Herbicidal compositions comprising 4-amino-3-chloro-5-fluoro-6-(4-chloro-2-fluoro-3-methoxyphenyl)pyridine-2-carboxylic acid or a derivative thereof and bromobutide, daimuron, oxaziclomefone or pyributicarb” (Dow Agrosciences LLC, priority 2012, dated 2014).

The subject of this assay is FIMMI. The assay can be described thus: In-water applied greenhouse weed control, transplanted paddy rice system. The note with it: in-water application. Format: in vivo, Fimbristylis miliacea (L.) Vahl. The protocol: Weed seeds or nutlets of the desired test plant species were planted in puddled soil (mud) prepared by mixing a shredded, non-sterilized mineral soil (50.5 percent silt, 25.5 percent clay, and 24 percent sand, with a pH of about 7.6 and an organic matter content of about 2.9 percent) and water at a 1:1 volumetric ratio. The prepared mud was dispensed in 365 mL aliquots into 16-ounce (oz.) non-perforated plastic pots with a surface area of 86.59 square centimeters (cm^2) leaving a headspace of 3 centimeters (cm) in each pot. Mud was allowed to dry overnight prior to planting or transplanting. Rice seeds were planted in Sun Gro MetroMix® 306 planting mixture, which typically has a pH of 6.0 to 6.8 and an organic matter content of about 30 percent, in plastic plug trays. Seedlings at the second or third leaf stage of growth were transplanted into 840 mL of mud contained in 32-oz. non-perforated plastic pots with a surface area of 86.59 cm^2 4 days prior to herbicide application. The paddy was created by filling the headspace of the pots with 2.5 to 3 cm of water. When required to ensure good germination and healthy plants, a fungicide treatment and/or other chemical or physical treatment was applied. The plants were grown for 4-22 days in a greenhouse with an approximate 14 h photoperiod which was maintained at about 29° C. during the day and 26° C. during the night. Nutrients were added as Osmocote® (19:6:12, N:P:K+ minor nutrients) at 2 g per 16-oz. pot and 4 g per 32-oz. pot. Water was added on a regular basis to maintain the paddy flood, and supplemental lighting was provided with overhead metal halide 1000-Watt lamps as necessary. The plants were employed for testing when they reached the first through fourth true leaf stage.
Treatments consisted of the acid or esters of 4-amino-3-chloro-5-fluoro-6-(4-chloro-2-fluoro-3-methoxy-phenyl)pyridine-2-carboxylic acid (compound A) each formulated as an SC and various herbicidal components alone and in combination. Forms of compound A were applied on an acid equivalent basis.
Other herbicidal components were applied on an active ingredient basis and included daimuron formulated as an EC, bromobutide (technical grade material), and oxaziclomefone (technical grade material).
Treatment requirements for each compound or herbicidal component were calculated based upon the rates being tested, the concentration of active ingredient or acid equivalent in the formulation, an application volume of 2 mL per component per pot, and an application area of 86.59 cm^2 per pot.
For formulated compounds, a measured amount was placed in an individual 100 or 200 mL glass vial and was dissolved in a volume of 1.25% (v/v) Agri-Dex® crop oil concentrate to obtain application solutions.
For technical grade compounds, a weighed amount was placed in an individual 100 to 200 mL glass vial and was dissolved in a volume of acetone to obtain concentrated stock solutions. […] The concentrated stock solutions obtained were diluted with an equivalent volume of an aqueous mixture containing 2.5% (v/v) crop oil concentrate so that the final application solutions contained 1.25% (v/v) crop oil concentrate.
Applications were made by injecting, with a pipetter, appropriate amounts of the application solutions, individually and sequentially, into the aqueous layer of the paddy. Control plants were treated in the same manner with the solvent blank. Applications were made so that all treated plant material received the same concentrations of acetone and crop oil concentrate.
The treated plants and control plants were placed in a greenhouse as described above and water was added as needed to maintain a paddy flood. After approximately 3 weeks the condition of the test plants as compared with that of the untreated plants was determined visually and scored on a scale of 0 to 100 percent where 0 corresponds to no injury or growth inhibition and 100 corresponds to complete kill. […]

[1] abbreviates: Compound A Benzyl Ester 8 gae/ha alone.
[2] abbreviates: Compound A Benzyl Ester 16 gae/ha alone.

The structures appear in SMILES notation.

`COc1c(Cl)ccc(-c2nc(C(=O)OCc3ccccc3)c(Cl)c(N)c2F)c1F` [Compound A Benzyl Ester]: the “Visual Weed Control (%) - 19 DAA FIMMI Obs” value stood at 0% under setting [1] and 0% under setting [2]. The “Visual Weed Control (%) - 21 DAA FIMMI Obs” value reads like this: under setting [1], 15%; under setting [2], 65%; (Compound A Benzyl Ester 32 gae/ha alone) 75%.
